Results from publication PMC7026885, “Macrofilaricidal Benzimidazole–Benzoxaborole Hybrids as an Approach to the Treatment of River Blindness: Part 1. Amide Linked Analogs” (ACS Infectious Diseases, 2019).
Where two headings read alike, the source gives them in different places.

What was measured:
Litomosoides sigmodontis = Litomosoides sigmodontis natural infection in vivo model; settings: L. sigmodontis, necropsy day 63, QD
Procedure: We characterized the in vitro ADME properties of 8a in preparation for evaluation of this compound in our primary in vivo model in gerbils. […] We were pleased to find that 8a was able to kill 100% of both male and female worms in the gerbil peritoneum when dosed subcutaneously at 100 mg/kg/day for 14 days as a suspension in a nonsolubilizing HEC/Tween vehicle. […] The subsequent assessment of the pharmacokinetics of 8a from these two dosing paradigms provided an interesting observation that we believe to be important in understanding the PK–PD requirements for achieving efficacy in this animal model. […] We had made the same observation in a positive control group using flubendazole at a subcutaneous dose of 10 mg/kg/day for 5 days in the nonsolubilizing HEC/Tween vehicle, namely, that plasma levels of flubendazole were maintained above the in vitro IC50 (4 nM) for over 42 days, consistent with data reported in the literature.[43] […] We next examined 8a in two additional in vivo models, the first where L3 B. pahangi larvae were injected into the peritoneum of gerbils and allowed to develop into adult worms[45] and a second where gerbils were naturally infected by the filarial nematode Litomosoides sigmodontis.[46],[47] In both of these models, 8a was administered subcutaneously at 100 mg/kg for 14 days or orally at 100 mg/kg for 28 days as a suspension. […] Additionally, when plasma obtained from treated animals at necropsy was analyzed for 8a, we observed an outcome similar to that observed in the adult implantation model, e.g., that measurable levels were present at this time point in the subcutaneous-dosed groups but not in the orally dosed groups, weeks after administration of the drug. In a final L. sigmodontis experiment with 8a, we dosed the compound subcutaneously at 300 mg/kg for 7 days as a suspension. […]
administered their doses at the same time each day and are allowed to feed and drink ad libitum. Gerbils were euthanized following approved institutional protocols. Euthanized animals were weighed and examined for external and visceral pathologies.
The adult Brugia worms were recovered by opening the body cavity and washing the peritoneal cavity with 100 mL of phosphate buffered saline. Male and female worms were counted using a
Litomosoides sigmodontis natural infection in vivo model
All animal experiments with L. sigmodontis were conducted at the Institute for Medical Microbiology, Immunology and Parasitology
(IMMIP), University Hospital of Bonn, in accordance to the European Union animal welfare guidelines. All protocols were approved by the local authorities (Landesamt für Natur, Umwelt […]
from Janvier (Saint-Berthevin, France) and were housed at the animal facility of the IMMIP in individually ventilated cages on a 12h light/dark cycle with food and water ad libidum. Mice were infected at 6-8 weeks of age via exposure to the natural mite vector Ornithonyssus bacoti containing infectious L. sigmodontis
L3 larvae. To compare the infection, the same batch of mite-containing bedding was used to infect all animals of one experiment. 35 days post infection, a time point adult worms have developed within the thoracic cavity, mice were treated per oral gavage with the test compounds at concentrations indicated in the result section. As a vehicle, 1% CMC + 0.1% Tween80 was used. Negative controls were treated with vehicle and as positive control, mice were treated orally with doxycycline
(Sigma) in 10% DMSO/1xPBS. Necropsies were performed at 64-77

[1] = Metabolic stability in gerbil microsomes; type: in vitro ADME
Procedure: We characterized the in vitro ADME properties of 8a in preparation for evaluation of this compound in our primary in vivo model in gerbils. […] We were pleased to find that 8a was able to kill 100% of both male and female worms in the gerbil peritoneum when dosed subcutaneously at 100 mg/kg/day for 14 days as a suspension in a nonsolubilizing HEC/Tween vehicle. […] The subsequent assessment of the pharmacokinetics of 8a from these two dosing paradigms provided an interesting observation that we believe to be important in understanding the PK–PD requirements for achieving efficacy in this animal model. […] We had made the same observation in a positive control group using flubendazole at a subcutaneous dose of 10 mg/kg/day for 5 days in the nonsolubilizing HEC/Tween vehicle, namely, that plasma levels of flubendazole were maintained above the in vitro IC50 (4 nM) for over 42 days, consistent with data reported in the literature.[43] […] Additionally, when plasma obtained from treated animals at necropsy was analyzed for 8a, we observed an outcome similar to that observed in the adult implantation model, e.g., that measurable levels were present at this time point in the subcutaneous-dosed groups but not in the orally dosed groups, weeks after administration of the drug. […]

MDR1-MDCK monolayer = MDR1-MDCK monolayer permeability assay; type: in vitro ADME; settings: dog
Procedure: We characterized the in vitro ADME properties of 8a in preparation for evaluation of this compound in our primary in vivo model in gerbils. […] We were pleased to find that 8a was able to kill 100% of both male and female worms in the gerbil peritoneum when dosed subcutaneously at 100 mg/kg/day for 14 days as a suspension in a nonsolubilizing HEC/Tween vehicle. […] The subsequent assessment of the pharmacokinetics of 8a from these two dosing paradigms provided an interesting observation that we believe to be important in understanding the PK–PD requirements for achieving efficacy in this animal model. […] We had made the same observation in a positive control group using flubendazole at a subcutaneous dose of 10 mg/kg/day for 5 days in the nonsolubilizing HEC/Tween vehicle, namely, that plasma levels of flubendazole were maintained above the in vitro IC50 (4 nM) for over 42 days, consistent with data reported in the literature.[43] […] We next examined 8a in two additional in vivo models, the first where L3 B. pahangi larvae were injected into the peritoneum of gerbils and allowed to develop into adult worms[45] and a second where gerbils were naturally infected by the filarial nematode Litomosoides sigmodontis.[46],[47] In both of these models, 8a was administered subcutaneously at 100 mg/kg for 14 days or orally at 100 mg/kg for 28 days as a suspension. […] Additionally, when plasma obtained from treated animals at necropsy was analyzed for 8a, we observed an outcome similar to that observed in the adult implantation model, e.g., that measurable levels were present at this time point in the subcutaneous-dosed groups but not in the orally dosed groups, weeks after administration of the drug. In a final L. sigmodontis experiment with 8a, we dosed the compound subcutaneously at 300 mg/kg for 7 days as a suspension.

pregnant female rats = system: pregnant female rats; parameters: method as in PMID 23287076, PMID 24994687; settings: dosed to pregnant female rats; cited from earlier work
micronucleus [2] = system: micronucleus; parameters: method as in PMID 26443851; settings: in vitro; cited from earlier work
rat whole embryo culture = system: rat whole embryo culture; parameters: method as in PMID 23287076, PMID 24994687; settings: cited from earlier work
micronucleus [3] = system: micronucleus; parameters: method as in PMID 26443851; settings: in vivo; cited from earlier work
[4] = 100 mg/kg × 28 days, PO (suspension)
[5] = 300 mg/kg × 7 days, SC (suspension)

Row | Structure (SMILES) | adult worm reduction (Litomosoides sigmodontis; [4]) | animals with no worms (Litomosoides sigmodontis; [4]) [%] | adult worm reduction (Litomosoides sigmodontis; [5]) [%/100%] | animals with no worms (Litomosoides sigmodontis; [5]) [%/100%] | microsomal CLint [1] [µL/min/mg] | Papp with Pgp efflux inhibitor GF-120918 (MDR1-MDCK monolayer) | embryotoxicity (pregnant female rats) | adult worm reduction (Litomosoides sigmodontis; 10 mg/kg × 5 days, SC) [%/100%] | animals with no worms (Litomosoides sigmodontis; 10 mg/kg × 5 days, SC) [%/100%] | micronucleus test result (micronucleus [2]) | embryotoxicity (rat whole embryo culture) | micronucleus test result (micronucleus [3])
1 | COC(=O)Nc1nc2cc(C(=O)NCc3ccc4c(c3)B(O)OC4(C)C)ccc2[nH]1 [8a] | –135.3% | 0 | 100 | 100 | < 4 | 2.7 × 10^–6 cm/s |  |  |  |  |  | 
2 | COC(=O)Nc1nc2cc(C(=O)c3ccc(F)cc3)ccc2[nH]1 [compound 1, Flubendazole, reference compound] |  |  |  |  |  |  | potentially embryotoxic | 100 | 100 | aneugen | potentially embryotoxic | aneugen
